Reference: PubChem BioAssay (NCI)
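These data come from cells grown in 96-well plates and exposed to compound for 48 hours at five concentrations. TGI: concentration producing complete growth inhibition.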

Tests used:
Assay in all cases: NCI-60 cell line screen, 48 h
CCRF-CEM leukemia = tested on: CCRF-CEM leukemia
MDA-MB-435 = tested on: MDA-MB-435
RXF 393 renal = tested on: RXF 393 renal
KM12 colon = tested on: KM12 colon
OVCAR-4 ovarian = tested on: OVCAR-4 ovarian
MDA-N = tested on: MDA-N
A498 renal = tested on: A498 renal
SNB-19 CNS = tested on: SNB-19 CNS
SK-OV-3 ovarian = tested on: SK-OV-3 ovarian
HOP-92 NSCLC = tested on: HOP-92 NSCLC
A549 NSCLC = tested on: A549 NSCLC
UACC-257 melanoma = tested on: UACC-257 melanoma
M14 melanoma = tested on: M14 melanoma
NCI-H460 lung = tested on: NCI-H460 lung
SNB-75 CNS = tested on: SNB-75 CNS
T-47D breast = tested on: T-47D breast
COLO 205 colon = tested on: COLO 205 colon
786-0 renal = tested on: 786-0 renal
OVCAR-8 ovarian = tested on: OVCAR-8 ovarian
HOP-62 NSCLC = tested on: HOP-62 NSCLC
SK-MEL-2 melanoma = tested on: SK-MEL-2 melanoma
IGROV1 ovarian = tested on: IGROV1 ovarian
NCI-H23 lung = tested on: NCI-H23 lung
SK-MEL-5 melanoma = tested on: SK-MEL-5 melanoma
SK-MEL-28 melanoma = tested on: SK-MEL-28 melanoma
MOLT-4 leukemia = tested on: MOLT-4 leukemia
HL-60(TB) leukemia = tested on: HL-60(TB) leukemia
SW-620 colon = tested on: SW-620 colon
LOX IMVI melanoma = tested on: LOX IMVI melanoma
HCT-15 colon = tested on: HCT-15 colon
DU-145 prostate = tested on: DU-145 prostate
SF-295 CNS = tested on: SF-295 CNS
RPMI-8226 leukemia = tested on: RPMI-8226 leukemia
HCC-2998 colon = tested on: HCC-2998 colon
MCF7 breast = tested on: MCF7 breast
ACHN renal = tested on: ACHN renal
CAKI-1 renal = tested on: CAKI-1 renal
EKVX NSCLC = tested on: EKVX NSCLC
UO-31 renal = tested on: UO-31 renal
NCI/ADR-RES ovarian = tested on: NCI/ADR-RES ovarian
U251 CNS = tested on: U251 CNS
SR leukemia = tested on: SR leukemia
UACC-62 melanoma = tested on: UACC-62 melanoma
HCT-116 colon = tested on: HCT-116 colon
SN12C renal = tested on: SN12C renal
TK-10 renal = tested on: TK-10 renal
K-562 leukemia = tested on: K-562 leukemia
BT-549 breast = tested on: BT-549 breast
OVCAR-5 ovarian = tested on: OVCAR-5 ovarian
PC-3 prostate = tested on: PC-3 prostate
OVCAR-3 ovarian = tested on: OVCAR-3 ovarian
MALME-3M melanoma = tested on: MALME-3M melanoma
MDA-MB-231 breast = tested on: MDA-MB-231 breast
NCI-H522 lung = tested on: NCI-H522 lung
SF-539 CNS = tested on: SF-539 CNS
HT29 colon = tested on: HT29 colon
SF-268 CNS = tested on: SF-268 CNS
NCI-H226 lung = tested on: NCI-H226 lung

## CCOC(=O)C1=c2[nH]c3cccc4cccc(c43)n2C(=O)CC1
CCRF-CEM leukemia
  TGI: > 100 µM
MDA-MB-435
  TGI: > 100 µM
RXF 393 renal
  TGI: > 100 µM
KM12 colon
  TGI: 89.3 µM
OVCAR-4 ovarian
  TGI: > 100 µM
MDA-N
  TGI: > 100 µM
A498 renal
  TGI: > 100 µM
SNB-19 CNS
  TGI: > 100 µM
SK-OV-3 ovarian
  TGI: > 100 µM
HOP-92 NSCLC
  TGI: > 100 µM
A549 NSCLC
  TGI: > 100 µM
UACC-257 melanoma
  TGI: > 100 µM
M14 melanoma
  TGI: > 100 µM
NCI-H460 lung
  TGI: > 100 µM
SNB-75 CNS
  TGI: > 100 µM
T-47D breast
  TGI: 69.8 µM
COLO 205 colon
  TGI: > 100 µM
786-0 renal
  TGI: > 100 µM
OVCAR-8 ovarian
  TGI: > 100 µM
HOP-62 NSCLC
  TGI: > 100 µM
SK-MEL-2 melanoma
  TGI: > 100 µM
IGROV1 ovarian
  TGI: > 100 µM
NCI-H23 lung
  TGI: > 100 µM
SK-MEL-5 melanoma
  TGI: > 100 µM
SK-MEL-28 melanoma
  TGI: > 100 µM
MOLT-4 leukemia
  TGI: > 100 µM
HL-60(TB) leukemia
  TGI: 64 µM
SW-620 colon
  TGI: 71.3 µM
LOX IMVI melanoma
  TGI: 62.2 µM
HCT-15 colon
  TGI: > 100 µM
DU-145 prostate
  TGI: > 100 µM
SF-295 CNS
  TGI: > 100 µM
RPMI-8226 leukemia
  TGI: > 100 µM
HCC-2998 colon
  TGI: > 100 µM
MCF7 breast
  TGI: > 100 µM
ACHN renal
  TGI: > 100 µM
CAKI-1 renal
  TGI: > 100 µM
EKVX NSCLC
  TGI: > 100 µM
UO-31 renal
  TGI: > 100 µM
NCI/ADR-RES ovarian
  TGI: > 100 µM
U251 CNS
  TGI: > 100 µM
SR leukemia
  TGI: > 100 µM
UACC-62 melanoma
  TGI: > 100 µM
HCT-116 colon
  TGI: > 100 µM
SN12C renal
  TGI: > 100 µM
TK-10 renal
  TGI: > 100 µM
K-562 leukemia
  TGI: > 100 µM
BT-549 breast
  TGI: > 100 µM
OVCAR-5 ovarian
  TGI: > 100 µM
PC-3 prostate
  TGI: > 100 µM
OVCAR-3 ovarian
  TGI: > 100 µM

## CC(=O)OCC1OC(N2C(=O)NC(=O)C3C=C4CCCCC4=CC32)C(OC(C)=O)C1OC(C)=O (stereo not given)
CCRF-CEM leukemia
  TGI: > 100 µM
MDA-MB-435
  TGI: > 100 µM
RXF 393 renal
  TGI: > 100 µM
OVCAR-4 ovarian
  TGI: > 100 µM
MDA-N
  TGI: > 100 µM
A498 renal
  TGI: > 100 µM
SNB-19 CNS
  TGI: > 100 µM
SK-OV-3 ovarian
  TGI: > 100 µM
HOP-92 NSCLC
  TGI: > 100 µM
A549 NSCLC
  TGI: > 100 µM
UACC-257 melanoma
  TGI: > 100 µM
M14 melanoma
  TGI: > 100 µM
NCI-H460 lung
  TGI: > 100 µM
T-47D breast
  TGI: > 100 µM
COLO 205 colon
  TGI: > 100 µM
SK-MEL-2 melanoma
  TGI: > 100 µM
IGROV1 ovarian
  TGI: > 100 µM
MALME-3M melanoma
  TGI: > 100 µM
NCI-H23 lung
  TGI: > 100 µM
SK-MEL-5 melanoma
  TGI: > 100 µM
SK-MEL-28 melanoma
  TGI: > 100 µM
MOLT-4 leukemia
  TGI: > 100 µM
HL-60(TB) leukemia
  TGI: > 100 µM
SW-620 colon
  TGI: > 100 µM
LOX IMVI melanoma
  TGI: > 100 µM
MDA-MB-231 breast
  TGI: > 100 µM
HCT-15 colon
  TGI: > 100 µM
DU-145 prostate
  TGI: > 100 µM
SF-295 CNS
  TGI: > 100 µM
RPMI-8226 leukemia
  TGI: > 100 µM
HCC-2998 colon
  TGI: > 100 µM
NCI-H522 lung
  TGI: > 100 µM
MCF7 breast
  TGI: > 100 µM
ACHN renal
  TGI: > 100 µM
SF-539 CNS
  TGI: > 100 µM
CAKI-1 renal
  TGI: > 100 µM
EKVX NSCLC
  TGI: > 100 µM
UO-31 renal
  TGI: > 100 µM
U251 CNS
  TGI: > 100 µM
SR leukemia
  TGI: > 100 µM
UACC-62 melanoma
  TGI: > 100 µM
HCT-116 colon
  TGI: > 100 µM
SN12C renal
  TGI: > 100 µM
TK-10 renal
  TGI: > 100 µM
K-562 leukemia
  TGI: > 100 µM
BT-549 breast
  TGI: > 100 µM
OVCAR-5 ovarian
  TGI: > 100 µM
PC-3 prostate
  TGI: > 100 µM
OVCAR-3 ovarian
  TGI: > 100 µM

## C#Cc1cc(-c2nc3ccccc3s2)ccc1N
CCRF-CEM leukemia
  TGI: 56 µM
MDA-MB-435
  TGI: 40.4 µM
HT29 colon
  TGI: 33 µM
RXF 393 renal
  TGI: 93.9 µM
KM12 colon
  TGI: 46.9 µM
OVCAR-4 ovarian
  TGI: 47.1 µM
MDA-N
  TGI: 97.6 µM
SNB-19 CNS
  TGI: 66.9 µM
SK-OV-3 ovarian
  TGI: 69.7 µM
HOP-92 NSCLC
  TGI: 44.7 µM
A549 NSCLC
  TGI: 42.8 µM
UACC-257 melanoma
  TGI: 27.9 µM
M14 melanoma
  TGI: 34.5 µM
NCI-H460 lung
  TGI: 74.5 µM
T-47D breast
  TGI: 45.6 µM
COLO 205 colon
  TGI: 32.9 µM
786-0 renal
  TGI: > 100 µM
OVCAR-8 ovarian
  TGI: > 100 µM
HOP-62 NSCLC
  TGI: > 100 µM
SK-MEL-2 melanoma
  TGI: 35.9 µM
IGROV1 ovarian
  TGI: 53.8 µM
MALME-3M melanoma
  TGI: 63.4 µM
NCI-H23 lung
  TGI: 55.9 µM
SK-MEL-5 melanoma
  TGI: 68.6 µM
SK-MEL-28 melanoma
  TGI: 35.6 µM
MOLT-4 leukemia
  TGI: 91.1 µM
HL-60(TB) leukemia
  TGI: > 100 µM
SW-620 colon
  TGI: 81.8 µM
LOX IMVI melanoma
  TGI: 27.8 µM
HCT-15 colon
  TGI: 42.8 µM
DU-145 prostate
  TGI: 39.5 µM
SF-295 CNS
  TGI: 54.8 µM
RPMI-8226 leukemia
  TGI: 76.8 µM
HCC-2998 colon
  TGI: 32.6 µM
NCI-H522 lung
  TGI: 32.3 µM
MCF7 breast
  TGI: 31.4 µM
ACHN renal
  TGI: 70.3 µM
SF-539 CNS
  TGI: 81.3 µM
SF-268 CNS
  TGI: > 100 µM
CAKI-1 renal
  TGI: 50.4 µM
EKVX NSCLC
  TGI: 65 µM
UO-31 renal
  TGI: 56.3 µM
NCI/ADR-RES ovarian
  TGI: 86.5 µM
U251 CNS
  TGI: 63.6 µM
SR leukemia
  TGI: 92.4 µM
UACC-62 melanoma
  TGI: 36.6 µM
HCT-116 colon
  TGI: 32.9 µM
SN12C renal
  TGI: 79 µM
TK-10 renal
  TGI: 36.8 µM
NCI-H226 lung
  TGI: 47.8 µM
K-562 leukemia
  TGI: 89 µM
BT-549 breast
  TGI: 94.9 µM
OVCAR-5 ovarian
  TGI: > 100 µM
PC-3 prostate
  TGI: 94.1 µM
OVCAR-3 ovarian
  TGI: 42.4 µM
